{
  "source": "patent US20180000942A1",
  "about": "“COMPOSITIONS FOR DRUG ADMINISTRATION” (priority 2013, published 2018)",
  "key": {"blood glucose [1]": {"tested_on": "blood glucose", "test": "Insulin eye drops with absorption enhancer in xylazine/ketamine anesthetized rats, blood glucose"}, "blood D-glucose": {"tested_on": "blood D-glucose", "test": "Glucagon eye drops with surfactant, blood D-glucose", "conditions": "0.5% surfactant plus glucagon (30 μg) eye drops", "description": "Glucagon absorption from the eye was measured in rats given eye drops containing various surfactants plus glucagon (30 μg) (Eli Lilly, Indianapolis, Ind.) by monitoring an elevation in blood D-glucose levels. In these experiments, rats were anesthetized with sodium pentobarbital rather than xylazine/ketamin.\nPaired animals that receive eye drops containing the surfactant alone, or glucagon alone, were compared to animals receiving eye drops with the surfactant plus glucagon."}, "blood glucose [2]": {"tested_on": "blood glucose", "test": "Intranasal insulin with […] TDM in anesthesia-induced hyperglycemia model", "format": "in vivo, mouse", "conditions": "minus […] TDM", "from_the_text": "Intranasal administration of drugs or agents are possible in animal models e.g. mice and rats, although the nasal opening in is very small. In the experiments and results described herein, an anesthesia-induced hyperglycemia model was used (described in Examples above). Hyperglycemic animals were induced by an intraperitoneal (IP) injection containing xylazine-ketamine and blood glucose levels were monitored over a period of time. Immediately after the xylazine-ketamine injection, there was an increase in the blood glucose levels as shown in FIG. 2 (closed dark circles), and blood glucose levels were about 450 mg/dl. […] Blood glucose levels peak to about 482 mg/dl by 30 minutes after the xylazine-ketamine injection (FIG. 2). […] At about the 75 minute time point, blood glucose levels gradually returned to the baseline level in a normoglycemic mouse, or about 80-100 mg/dl."}, "[3]": {"conditions": "no alkylsaccharide, cited from earlier work"}},
  "data": [
    {"compound": "CCCCCCCCCCO[C@@H]1O[C@H](CO)[C@@H](O[C@H]2O[C@H](CO)[C@@H](O)[C@H](O)[C@H]2O)[C@H](O)[C@H]1O", "note": "[Decyl Maltoside, decyl-β-D-maltoside]", "values": [
      {"measurement": "effect as absorption enhancer for ocular insulin (blood glucose lowering), in words", "setting": "blood glucose [1]; 0.5% enhancer", "value": "prompt and sustained fall in blood glucose levels"},
      {"measurement": "level of D-glucose in blood after eye drops with surfactant plus glucagon, in words", "setting": "blood D-glucose", "value": "increase significantly"}
    ]},
    {"compound": "CCCCCCOC1O[C@H](CO)[C@@H](O)[C@H](O)[C@H]1O", "note": "(stereo partly shown) [hexylglucoside, Hexylglucopyranoside]", "values": [
      {"measurement": "effect as absorption enhancer for ocular insulin (blood glucose lowering), in words", "setting": "blood glucose [1]; 0.5% enhancer", "value": "ineffective"}
    ]},
    {"compound": "CCCCCCCOC1O[C@H](CO)[C@@H](O)[C@H](O)[C@H]1O", "note": "(stereo partly shown) [heptylglucoside, heptylglucopyranoside]", "values": [
      {"measurement": "effect as absorption enhancer for ocular insulin (blood glucose lowering), in words", "setting": "blood glucose [1]; 0.5% enhancer", "value": "ineffective"}
    ]},
    {"compound": "insulin alone: insulin (Humalog), same dosage, minus 0.25% TDM", "values": [
      {"measurement": "return of blood glucose to normoglycemic levels", "setting": "blood glucose [2]", "value": "never return to normoglycemic levels"},
      {"measurement": "time at which blood glucose levels start to decline", "setting": "blood glucose [2]; same dosage", "value": "~120", "unit": "minute time mark"}
    ]},
    {"compound": "CCCCCCCCCOC1O[C@H](CO)[C@@H](O)[C@H](O)[C@H]1O", "note": "(stereo partly shown) [nonylglucoside, nonylglucopyranoside]", "values": [
      {"measurement": "effect as absorption enhancer for ocular insulin (blood glucose lowering), in words", "setting": "blood glucose [1]; 0.5% enhancer", "value": "effectively stimulated insulin absorption"},
      {"measurement": "blood glucose level before reduction (from)", "setting": "blood glucose [1]; eye drops insulin + 0.5% enhancer, initial value", "value": 297, "unit": "mg/dL"},
      {"measurement": "blood glucose level after reduction (to)", "setting": "blood glucose [1]; eye drops insulin + 0.5% enhancer, reduced value", "value": 150, "unit": "mg/dL"}
    ]},
    {"compound": "decylsucrose", "values": [
      {"measurement": "Blood Glucose Concentration", "setting": "blood glucose [1]; eye drops insulin + 0.5% enhancer, time 0 min", "value": 313, "unit": "mg/dL"},
      {"measurement": "Blood Glucose Concentration", "setting": "blood glucose [1]; eye drops insulin + 0.5% enhancer, time 120 min", "value": 164, "unit": "mg/dL"}
    ]},
    {"compound": "Cc1cc2c(s1)Nc1ccccc1N=C2N1CCN(C)CC1", "note": "[olanzapine, Olanzapine]", "values": [
      {"measurement": "time to peak concentrations", "setting": "[3]; following an oral dose", "value": "approximately 6 hours"},
      {"measurement": "dose metabolized by first pass before reaching the systemic circulation", "setting": "[3]", "value": "approximately 40%"}
    ]},
    {"compound": "CCCCCCCCCCCCCO[C@@H]1O[C@H](CO)[C@@H](O[C@H]2O[C@H](CO)[C@@H](O)[C@H](O)[C@H]2O)[C@H](O)[C@H]1O", "note": "[Tridecyl Maltoside, tridecyl-β-D-maltoside]", "values": [
      {"measurement": "effect as absorption enhancer for ocular insulin (blood glucose lowering), in words", "setting": "blood glucose [1]; 0.5% enhancer", "value": "effective"},
      {"measurement": "effect as absorption enhancer for ocular insulin (blood glucose lowering), in words", "setting": "blood glucose [1]; […] enhancer", "value": "sustained for the two hour time course of the experiment"},
      {"measurement": "level of D-glucose in blood after eye drops with surfactant plus glucagon, in words", "setting": "blood D-glucose", "value": "increase significantly"}
    ]}
  ]
}
